Experimental data taken from US20150274719A1, “AMINO-SUBSTITUTED IMIDAZO[1,2-A]PYRIDINECARBOXAMIDES AND THEIR USE” (BAYER PHARMA AKTIENGESELLSCHAFT, priority 2012, published 2015).

target: T1, recombinant guanylate cyclase reporter cell line (Rattus norvegicus, UniProt P19686+P20595); assay: Action on recombinant guanylate cyclase reporter cell line; type: cell-based; conditions: in some cases mean values from individual determinations
T1 construct: expressed in transfected cells; host or cells: recombinant reporter cell line
T1 sequence (P19686 1-690): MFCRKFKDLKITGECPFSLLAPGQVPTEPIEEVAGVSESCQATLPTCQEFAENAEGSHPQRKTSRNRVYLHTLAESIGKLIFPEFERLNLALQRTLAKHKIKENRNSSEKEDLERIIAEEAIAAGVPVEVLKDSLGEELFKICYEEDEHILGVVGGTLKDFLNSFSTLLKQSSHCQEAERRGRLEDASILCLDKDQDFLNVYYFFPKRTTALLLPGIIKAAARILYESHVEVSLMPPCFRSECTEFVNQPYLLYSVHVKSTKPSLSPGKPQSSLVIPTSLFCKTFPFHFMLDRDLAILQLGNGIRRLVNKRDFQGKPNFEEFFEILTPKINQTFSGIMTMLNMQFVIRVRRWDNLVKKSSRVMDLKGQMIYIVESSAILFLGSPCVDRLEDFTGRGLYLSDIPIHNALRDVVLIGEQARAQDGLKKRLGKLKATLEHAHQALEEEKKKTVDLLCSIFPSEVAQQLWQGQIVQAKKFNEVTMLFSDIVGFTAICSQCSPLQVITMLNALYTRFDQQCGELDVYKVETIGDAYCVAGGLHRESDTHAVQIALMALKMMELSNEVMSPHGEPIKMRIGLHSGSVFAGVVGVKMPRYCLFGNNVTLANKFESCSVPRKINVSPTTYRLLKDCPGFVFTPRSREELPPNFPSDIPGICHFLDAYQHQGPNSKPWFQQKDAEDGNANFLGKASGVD
T1 sequence (P20595 1-619): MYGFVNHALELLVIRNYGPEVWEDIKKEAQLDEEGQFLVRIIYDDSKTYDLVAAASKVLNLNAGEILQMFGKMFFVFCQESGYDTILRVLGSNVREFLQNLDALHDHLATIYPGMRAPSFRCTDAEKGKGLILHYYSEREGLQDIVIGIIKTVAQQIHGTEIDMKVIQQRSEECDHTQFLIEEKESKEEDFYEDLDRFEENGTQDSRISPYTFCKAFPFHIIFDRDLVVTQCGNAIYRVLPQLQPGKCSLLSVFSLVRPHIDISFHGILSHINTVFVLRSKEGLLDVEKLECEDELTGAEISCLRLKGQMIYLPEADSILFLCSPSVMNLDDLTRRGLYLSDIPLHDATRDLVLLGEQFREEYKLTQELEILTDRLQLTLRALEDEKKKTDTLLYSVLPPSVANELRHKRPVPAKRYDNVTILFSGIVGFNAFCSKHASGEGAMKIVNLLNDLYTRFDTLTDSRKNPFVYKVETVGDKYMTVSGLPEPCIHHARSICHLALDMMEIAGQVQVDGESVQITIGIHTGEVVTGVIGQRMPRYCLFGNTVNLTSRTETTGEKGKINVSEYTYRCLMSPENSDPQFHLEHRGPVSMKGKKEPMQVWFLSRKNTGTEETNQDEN
Summary of the method: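 Cellular activity was measured in a reporter cell line expressing recombinant guanylate cyclase. Values are given as MEC, the minimal effective concentration, and some are means of individual determinations.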

| SMILES | MEC (minimal effective concentration) [µM] |
| --- | --- |
| Cc1cc(OCc2c(F)cccc2F)c2nc(C)c(C(=O)NCC3CNCCO3)n2c1 (racemic) [Example 345, rac-8-[(2,6-Difluorobenzyl)oxy]-2,6-dimethyl-N-(morpholin-2-ylmethyl)imidazo[1,2-a]pyridine-3-carboxamide] | 1.00 |
| Cc1cc(OCc2c(F)cccc2F)c2nc(C)c(C(=O)NC34CCC3CNC4)n2c1 (racemic) [Example 346, rac-N-(3-azabicyclo[3.2.0]hept-1-yl)-8-[(2,6-difluorobenzyl)oxy]-2,6-dimethylimidazo[1,2-a]pyridine-3-carboxamide] | 1.00 |
| Cc1cc(OCc2c(F)cccc2F)c2nc(C)c(C(=O)NC3CNCC3F)n2c1 (racemic) [Example 347, rac-8-[(2,6-Difluorobenzyl)oxy]-N-(4-fluoropyrrolidin-3-yl)-2,6-dimethylimidazo[1,2-a]pyridine-3-carboxamide] | 1.00 |
| CCCC(C)(N)CNC(=O)c1c(C)nc2c(OCc3cccc(F)c3)cc(C)cn12 (racemic) [Example 348, rac-N-(2-amino-2-methylpentyl)-8-[(3-fluorobenzyl)oxy]-2,6-dimethylimidazo[1,2-a]pyridine-3-carboxamide] | 1.00 |
| Cc1cc(OCc2c(F)cccc2F)c2nc(C)c(C(=O)NCC(C)(N)COc3ccc(F)c(F)c3)n2c1 (racemic) [Example 350, rac-N-[2-amino-3-(3,4-difluorophenoxy)-2-methylpropyl]-8-[(2,6-difluorobenzyl)oxy]-2,6-dimethylimidazo[1,2-a]pyridine-3-carboxamide] | 1.00 |
| CCCC(C)(N)CNC(=O)c1c(C)nc2c(OCc3c(F)cccc3OC)cc(C)cn12 (racemic) [Example 351, rac-N-(2-amino-2-methylpentyl)-8-[(2-fluoro-6-methoxybenzyl)oxy]-2,6-dimethylimidazo[1,2-a]pyridine-3-carboxamide] | 3.00 |
| Cc1cc(OCc2c(F)cccc2F)c2nc(C)c(C(=O)NCC3CSCCN3)n2c1 (racemic) [Example 366, rac-8-[(2,6-difluorobenzyl)oxy]-2,6-dimethyl-N-(thiomorpholin-3-ylmethyl)imidazo[1,2-a]pyridine-3-carboxamide] | 0.10 |
| Cc1cc(OCc2c(F)cccc2F)c2nc(C)c(C(=O)NCC(N)c3cccc(OCCO)c3)n2c1 (racemic) [Example 367, rac-N-{2-amino-2-[3-(2-hydroxyethoxy)phenyl]ethyl}-8-[(2,6-difluorobenzyl)oxy]-2,6-dimethylimidazo[1,2-a]pyridine-3-carboxamide] | 3.00 |
| COc1ccc(CC(C)(N)CNC(=O)c2c(C)nc3c(OCc4c(F)cccc4F)cc(C)cn23)cc1 (racemic) [Example 368, rac-N-[2-amino-3-(4-methoxyphenyl)-2-methylpropyl]-8-[(2,6-difluorobenzyl)oxy]-2,6-dimethylimidazo[1,2-a]pyridine-3-carboxamide] | 0.10 |
| Cc1cc(OCc2c(F)cccc2F)c2nc(C)c(C(=O)NCC(N)c3ccc(C)o3)n2c1 (racemic) [Example 369, rac-N-[2-amino-2-(5-methyl-2-furyl)ethyl]-8-[(2,6-difluorobenzyl)oxy]-2,6-dimethylimidazo[1,2-a]pyridine-3-carboxamide] | 0.30 |
| Cc1cc(OCc2c(F)cccc2F)c2nc(C)c(C(=O)NCC(N)c3cnn(C)c3)n2c1 (racemic) [Example 370, rac-N-[2-amino-2-(1-methyl-1H-pyrazol-4-yl)ethyl]-8-[(2,6-difluorobenzyl)oxy]-2,6-dimethylimidazo[1,2-a]pyridine-3-carboxamide] | 3.00 |
| Cc1cc(OCc2c(F)cccc2F)c2nc(C)c(C(=O)NCC(N)c3ccc4c(c3)OCCO4)n2c1 (racemic) [Example 371, rac-N-[2-amino-2-(2,3-dihydro-1,4-benzodioxin-6-yl)ethyl]-8-[(2,6-difluorobenzyl)oxy]-2,6-dimethylimidazo[1,2-a]pyridine-3-carboxamide] | 3.00 |
| Cc1cc(OCc2c(F)cccc2F)c2nc(C)c(C(=O)NCC(N)c3ccc4ncccc4c3)n2c1 (racemic) [Example 372, rac-N-[2-amino-2-(quinolin-6-yl)ethyl]-8-[(2,6-difluorobenzyl)oxy]-2,6-dimethylimidazo[1,2-a]pyridine-3-carboxamide] | 3.00 |
| Cc1cc(OCc2c(F)cccc2F)c2nc(C)c(C(=O)NCC(N)c3csc4ccccc34)n2c1 (racemic) [Example 373, rac-N-[2-amino-2-(1-benzothiophen-3-yl)ethyl]-8-[(2,6-difluorobenzyl)oxy]-2,6-dimethylimidazo[1,2-a]pyridine-3-carboxamide] | 3.00 |
| Cc1cc(OCc2c(F)cccc2F)c2nc(C)c(C(=O)NCC(N)c3cc(F)c(F)c(F)c3)n2c1 (racemic) [Example 374, rac-N-[2-amino-2-(3,4,5-trifluorophenyl)ethyl]-8-[(2,6-difluorobenzyl)oxy]-2,6-dimethylimidazo[1,2-a]pyridine-3-carboxamide] | 1.00 |
| Cc1cc(OCc2c(F)cccc2F)c2nc(C)c(C(=O)NCC(N)c3cccc(OC(F)F)c3)n2c1 (racemic) [Example 375, rac-N-{2-amino-2-[3-(difluoromethoxy)phenyl]ethyl}-8-[(2,6-difluorobenzyl)oxy]-2,6-dimethylimidazo[1,2-a]pyridine-3-carboxamide] | 3.00 |
| Cc1cc(OCc2c(F)cccc2F)c2nc(C)c(C(=O)NCC(N)c3cccc(C(F)(F)F)c3)n2c1 (racemic) [Example 376, rac-N-{2-amino-2-[3-(trifluoromethyl)phenyl]ethyl}-8-[(2,6-difluorobenzyl)oxy]-2,6-dimethylimidazo[1,2-a]pyridine-3-carboxamide] | 3.00 |
| Cc1cc(OCc2c(F)cccc2F)c2nc(C)c(C(=O)NCC(N)c3cccc(OC(F)(F)F)c3)n2c1 (racemic) [Example 377, rac-N-{2-amino-2-[3-(trifluoromethoxy)phenyl]ethyl}-8-[(2,6-difluorobenzyl)oxy]-2,6-dimethylimidazo[1,2-a]pyridine-3-carboxamide] | 3.00 |
| COc1cccc(C(N)CNC(=O)c2c(C)nc3c(OCc4c(F)cccc4F)cc(C)cn23)c1 (racemic) [Example 378, rac-N-[2-amino-2-(3-methoxyphenyl)ethyl]-8-[(2,6-difluorobenzyl)oxy]-2,6-dimethylimidazo[1,2-a]pyridine-3-carboxamide] | 1.00 |
| Cc1cc(OCc2c(F)cccc2F)c2nc(C)c(C(=O)NC(CN)c3ccc4ccccc4c3)n2c1 (racemic) [Example 379, rac-N-[2-amino-1-(2-naphthyl)ethyl]-8-[(2,6-difluorobenzyl)oxy]-2,6-dimethylimidazo[1,2-a]pyridine-3-carboxamide] | 1.00 |
| Cc1cc(OCc2c(F)cccc2F)c2nc(C)c(C(=O)NC(CN)c3cccc(OC(F)(F)F)c3)n2c1 (racemic) [Example 380, rac-N-{2-amino-1-[3-(trifluoromethoxy)phenyl]ethyl}-8-[(2,6-difluorobenzyl)oxy]-2,6-dimethylimidazo[1,2-a]pyridine-3-carboxamide] | 1.00 |
| Cc1cc(OCc2c(F)cccc2F)c2nc(C)c(C(=O)NC(CN)c3ccc4c(c3)OCO4)n2c1 (racemic) [Example 381, rac-N-[2-amino-1-(1,3-benzodioxol-5-yl)ethyl]-8-[(2,6-difluorobenzyl)oxy]-2,6-dimethylimidazo[1,2-a]pyridine-3-carboxamide] | 0.30 |
